Source: ChEMBL document CHEMBL1201862, “PubChem BioAssay data set” (2004)
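96-well plates; 48 h exposure; 5 concentrations. Endpoints by linear interpolation between flanking doses. Not reached: highest tested concentration assigned. GI50 marks 50% less growth.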 Calls of active or inactive are those of the source. Cut-off read from the data, not from the text of the source: active = GI50 up to about 1.1 µM and inactive = higher.

Key:
Assay in all cases: inhibition of tumour cell growth, NCI panel, 48 h
BT-549 = test system: BT-549
MDA-MB-231 = test system: MDA-MB-231
IGROV-1 = test system: IGROV-1
EKVX = test system: EKVX
SNB-75 = test system: SNB-75
DU-145 = test system: DU-145
UACC-257 = test system: UACC-257
RPMI-8226 = test system: RPMI-8226
OVCAR-8 = test system: OVCAR-8
UACC-62 = test system: UACC-62
U-251 = test system: U-251
KM12 = test system: KM12
NCI-H522 = test system: NCI-H522
ACHN = test system: ACHN
RXF 393 = test system: RXF 393
NCI-H226 = test system: NCI-H226
HT-29 = test system: HT-29
NCI/ADR-RES = test system: NCI/ADR-RES
CAKI-1 = test system: CAKI-1
A498 = test system: A498

CSc1nc2c(c(=O)n1C)N=C(c1ccc([N+](=O)[O-])cc1)CC(c1ccccc1)N2 (stereo not given)
GI50 (BT-549): > 100 µM (inactive) | GI50 (MDA-MB-231): 36.8 µM (inactive) | GI50 (IGROV-1): > 100 µM (inactive) | GI50 (EKVX): > 100 µM (inactive) | GI50 (SNB-75): 41.2 µM (inactive) | GI50 (DU-145): > 100 µM (inactive) | GI50 (UACC-257): > 100 µM (inactive) | GI50 (RPMI-8226): > 100 µM (inactive) | GI50 (OVCAR-8): > 100 µM (inactive) | GI50 (UACC-62): > 100 µM (inactive) | GI50 (U-251): > 100 µM (inactive) | GI50 (KM12): 84.3 µM (inactive) | GI50 (NCI-H522): 48.8 µM (inactive) | GI50 (ACHN): 95.9 µM (inactive) | GI50 (RXF 393): > 100 µM (inactive) | GI50 (NCI-H226): > 100 µM (inactive) | GI50 (HT-29): > 100 µM (inactive) | GI50 (NCI/ADR-RES): > 100 µM (inactive) | GI50 (CAKI-1): > 100 µM (inactive) | GI50 (A498): > 100 µM (inactive)

CCNC(=S)NNC(=O)CSc1nc2ccc(I)cc2c(=O)n1Cc1ccccc1
GI50 (BT-549): > 54.1 µM (inactive) | GI50 (MDA-MB-231): 41.5 µM (inactive) | GI50 (IGROV-1): 14.6 µM (inactive) | GI50 (EKVX): 15.8 µM (inactive) | GI50 (SNB-75): > 85.7 µM (inactive) | GI50 (DU-145): > 79.4 µM (inactive) | GI50 (UACC-257): 17.7 µM (inactive) | GI50 (RPMI-8226): 14.8 µM (inactive) | GI50 (OVCAR-8): 22 µM (inactive) | GI50 (UACC-62): > 27.6 µM (inactive) | GI50 (U-251): 43.4 µM (inactive) | GI50 (KM12): 8.77 µM (inactive) | GI50 (NCI-H522): 13.1 µM (inactive) | GI50 (ACHN): 5.74 µM (inactive) | GI50 (RXF 393): 11.8 µM (inactive) | GI50 (NCI-H226): 10.5 µM (inactive) | GI50 (HT-29): 18.1 µM (inactive) | GI50 (NCI/ADR-RES): 22 µM (inactive) | GI50 (CAKI-1): 0.374 µM (active) | GI50 (A498): 14.5 µM (inactive)

COc1ccc(-c2nc(N)c3ncn(C4OC(CO)C(O)C4O)c3n2)cc1 (stereo not given)
GI50 (BT-549): > 100 µM (inactive) | GI50 (MDA-MB-231): > 100 µM (inactive) | GI50 (IGROV-1): > 100 µM (inactive) | GI50 (EKVX): > 100 µM (inactive) | GI50 (SNB-75): > 100 µM (inactive) | GI50 (DU-145): > 100 µM (inactive) | GI50 (UACC-257): > 100 µM (inactive) | GI50 (RPMI-8226): > 100 µM (inactive) | GI50 (OVCAR-8): > 100 µM (inactive) | GI50 (UACC-62): > 100 µM (inactive) | GI50 (U-251): > 100 µM (inactive) | GI50 (KM12): > 100 µM (inactive) | GI50 (NCI-H522): 62.8 µM (inactive) | GI50 (ACHN): > 100 µM (inactive) | GI50 (RXF 393): > 100 µM (inactive) | GI50 (NCI-H226): > 100 µM (inactive) | GI50 (HT-29): > 100 µM (inactive) | GI50 (NCI/ADR-RES): > 100 µM (inactive) | GI50 (CAKI-1): > 100 µM (inactive) | GI50 (A498): > 100 µM (inactive)

COc1cc(Oc2nc3c(N)cc(C(F)(F)F)cc3nc2-c2ccccc2)cc(OC)c1OC
GI50 (BT-549): 4.03 µM (inactive) | GI50 (MDA-MB-231): 10.2 µM (inactive) | GI50 (IGROV-1): 0.916 µM (active) | GI50 (EKVX): 13.1 µM (inactive) | GI50 (SNB-75): 1.23 µM (inactive) | GI50 (DU-145): 8.55 µM (inactive) | GI50 (UACC-257): 4.09 µM (inactive) | GI50 (RPMI-8226): 2.45 µM (inactive) | GI50 (OVCAR-8): 4.91 µM (inactive) | GI50 (UACC-62): 1.66 µM (inactive) | GI50 (U-251): 5.9 µM (inactive) | GI50 (KM12): 2.17 µM (inactive) | GI50 (NCI-H522): 2.08 µM (inactive) | GI50 (ACHN): 4.55 µM (inactive) | GI50 (RXF 393): 5.71 µM (inactive) | GI50 (NCI-H226): 12.8 µM (inactive) | GI50 (HT-29): 1.49 µM (inactive) | GI50 (NCI/ADR-RES): 2.09 µM (inactive) | GI50 (CAKI-1): 3.98 µM (inactive) | GI50 (A498): 7.89 µM (inactive)

CN(C)c1c(C2OC(CO)C(O)C2O)c(=O)c1=O (stereo not given)
GI50 (BT-549): > 100 µM (inactive) | GI50 (MDA-MB-231): > 100 µM (inactive) | GI50 (IGROV-1): > 100 µM (inactive) | GI50 (EKVX): > 100 µM (inactive) | GI50 (SNB-75): > 100 µM (inactive) | GI50 (DU-145): > 100 µM (inactive) | GI50 (UACC-257): > 100 µM (inactive) | GI50 (RPMI-8226): > 100 µM (inactive) | GI50 (OVCAR-8): > 100 µM (inactive) | GI50 (UACC-62): > 100 µM (inactive) | GI50 (U-251): > 100 µM (inactive) | GI50 (KM12): > 100 µM (inactive) | GI50 (NCI-H522): > 100 µM (inactive) | GI50 (ACHN): > 100 µM (inactive) | GI50 (RXF 393): > 100 µM (inactive) | GI50 (NCI-H226): > 100 µM (inactive) | GI50 (HT-29): > 100 µM (inactive) | GI50 (NCI/ADR-RES): > 100 µM (inactive) | GI50 (CAKI-1): > 100 µM (inactive) | GI50 (A498): > 100 µM (inactive)
